For orientation: AUC(0-inf) means total exposure, with the tail of the curve extrapolated. In general, AUC(0-t) refers to exposure summed from dosing to a finite time, without extrapolation to infinity. One may read the Cmax as the peak of the concentration-time curve. A word on the Tmax: it is the time at which the peak concentration occurs. The term half-life denotes how long it takes for the measured level to halve. As usually defined, the CL/F is the apparent clearance, not corrected for the fraction that reaches the circulation. For orientation: bioavailability means dose-corrected exposure relative to a reference, in per cent. As usually defined, the clearance is a measure of how efficiently the substance is removed, as volume per time.

Values joined by “and” are separate entries in the source; they are usually repeats but may differ in a detail not shown here. Equal values may be shown once. “Also recorded” adds a separate entry of the source.

The conditions of series [1]: cited from earlier work.
Series [2] in a line: Human pilot pharmacokinetic study of IV and PO FdCyd and THU. The following applies: humans; after PO dosing; FC detected in 4 out of the 7 patients.
Series [3] is described as follows: Plasma pharmacokinetics of FdCyd, metabolites and THU in cynomolgus monkeys. The following applies: for Detection of metabolites in plasma: four animals; for Concentrations, fold lower than those of parent FdCyd: PO FdCyd 1 h after 500 mg/kg PO THU; for Detection in plasma: PO FdCyd at 1 and 10 mg/kg 1 h after PO THU; for AUC(0-inf): AUC0-inf; for AUC(0-t): AUC0-t.

The next series relates to cynomolgus monkeys. The following applies: THU (500 mg/kg) and FdCyd (0.1, 1.0 or 10.0 mg/kg) PO QDx3 every week, 3 or 4 repeat 1 week cycles.
Where [4] appears, read: monkeys, FdCyd 0.1 mg/kg PO 1 h after 500 mg/kg THU PO.
Where [5] appears, read: both, cynomolgus monkey, plasma, iv, analyte FdCyd, FdCyd 8 mg/kg 3 h IV infusion with THU 30 mg/kg IV, N=2, mean (±SD).
Setting [6] is: both, cynomolgus monkey, plasma, po, 10 mg/kg, analyte FdCyd, FdCyd 10 mg/kg PO 1 h after THU 150 mg/kg PO, N=4, mean (±SD).
Setting [7] is: both, cynomolgus monkey, plasma, po, 10 mg/kg, analyte FdCyd, FdCyd 10 mg/kg PO 1 h after THU 500 mg/kg PO, N=4, mean (±SD).

In the case of `Nc1ncn([C@@H]2O[C@H](CO)[C@@H](O)[C@H]2O)c(=O)n1` [5-aza-cytidine], the Chemical stability result in series [1] is “unstable”.
With `Nc1nc(=O)[nH]cc1F` [FC, 5-fluorocytosine], the “Overall maximum plasma concentration of FC observed” value in series [2] stood at 36.9 ng/mL. The FC in plasma result is listed as “no FC was detected” in series [3] (monkeys, 10 mg/kg FdCyd PO after 150 mg/kg THU PO); “not after 150 mg/kg THU” in series [3] (monkeys, 10 mg/kg FdCyd PO after 150 mg/kg THU PO, listed as 5-FC); “Low levels of FC were also detected” in series [3] (monkeys, 10 mg/kg FdCyd PO with 500 mg/kg THU PO); “observed” in series [3] (monkeys, 10 mg/kg FdCyd PO with 500 mg/kg THU PO, listed as 5-FC). In series [3] (setting [4]), the “Detection of metabolites in plasma” value is given as “No FU or FC was detected”.
As for `O=c1[nH]cc(F)c(=O)[nH]1` [FU, 5-fluorouracil], the “Detection of metabolites in plasma” value in series [3] (setting [4]) is listed as “No FU or FC was detected”. Also, in series [3] (monkeys), the “Concentrations, fold lower than those of parent FdCyd” value is listed as “approximately 10 fold” and the Detection in plasma entry was “detectable plasma concentrations”.
Turning to `O=c1[nH]c(=O)n([C@@H]2O[C@H](CO)[C@@H](O)[C@H]2O)cc1F` [FUrd, 5-fluorouridine], in series [3] (any of the samples, detectable down to approximately 30 ng/mL), the “FUrd peaks in plasma samples” value was “no FUrd peaks were detected”.
For `Nc1nc(=O)n([C@H]2C[C@H](O)[C@@H](CO)O2)cc1F` [FdCyd, 5-fluoro-2’-deoxycytidine], the “Mortality and dose-limiting toxicity” value with cynomolgus monkeys was “did not result in any mortality or any signs of dose-limiting toxicity”. The AUC(0-inf) in series [3] (setting [5]) was 17800 ng·h/mL; in series [3] (setting [6]) it was 1930 ng·h/mL; in series [3] (setting [7]), 5400 ng·h/mL. The AUC(0-t) in series [3] (setting [5]) is 17800 ng·h/mL; in series [3] (setting [6]), 1870 ng·h/mL; in series [3] (setting [7]), 5280 ng·h/mL. Also, the Cmax in series [3] (setting [5]) was determined as 5690 ng/mL; in series [3] (setting [6]), 1180 ng/mL; in series [3] (setting [7]), 2030 ng/mL. For the same molecule, the time to peak (Tmax) was 1.75 h in series [3] (both, cynomolgus monkey, plasma, iv, Tmax, analyte FdCyd, FdCyd 8 mg/kg 3 h IV infusion with THU 30 mg/kg IV, N=2, mean (±SD)); 0.25 h in series [3] (both, cynomolgus monkey, plasma, po, 0.1 mg/kg, Tmax for FdCyd (mean), monkeys, FdCyd 0.1 mg/kg PO 1 h after 500 mg/kg THU PO); 0.5 h in series [3] (both, cynomolgus monkey, plasma, po, 1 mg/kg, Tmax for FdCyd (mean), monkeys, FdCyd 1 mg/kg PO 1 h after 500 mg/kg THU PO); 1.38 h in series [3] (both, cynomolgus monkey, plasma, po, 10 mg/kg, Tmax for FdCyd (mean), monkeys, FdCyd 10 mg/kg PO 1 h after 500 mg/kg THU PO); 1.25 h in series [3] (both, cynomolgus monkey, plasma, po, 10 mg/kg, Tmax, analyte FdCyd, FdCyd 10 mg/kg PO 1 h after THU 150 mg/kg PO, N=4, mean (±SD)); 1.38 h in series [3] (both, cynomolgus monkey, plasma, po, 10 mg/kg, Tmax, analyte FdCyd, FdCyd 10 mg/kg PO 1 h after THU 500 mg/kg PO, N=4, mean (±SD)). In addition, the half-life in series [3] (both, cynomolgus monkey, plasma, iv, T½, analyte FdCyd, FdCyd 8 mg/kg 3 h IV infusion with THU 30 mg/kg IV, N=2, mean (±SD)) was 0.87 h; in series [3] (both, cynomolgus monkey, plasma, po, 10 mg/kg, T½, analyte FdCyd, FdCyd 10 mg/kg PO 1 h after THU 150 mg/kg PO, N=4, mean (±SD)), 1.23 h; in series [3] (both, cynomolgus monkey, plasma, po, 10 mg/kg, T½, analyte FdCyd, FdCyd 10 mg/kg PO 1 h after THU 500 mg/kg PO, N=4, mean (±SD)), 0.63 h; in series [3] (both, cynomolgus monkey, plasma, po, Plasma terminal half-life of FdCyd, monkeys, range over groups receiving 0.1, 1.0, and 10 mg/kg PO FdCyd 1 h after 500 mg/kg PO THU), 0.4 to 2.7 h; in series [3] (both, cynomolgus, cynomolgus monkey, plasma, iv, FdCyd half-life, monkeys, after IV FdCyd and THU administration, range) it was 0.367 to 0.933 h. For the same molecule, the values for the apparent clearance CL/F in series [3] (setting [6]) and in series [3] (setting [7]) were 126 mL/min/kg and 53 mL/min/kg, respectively. Moreover, the bioavailability in series [3] (both, cynomolgus monkey, plasma, po, 10 mg/kg, F (PO bioavailability), analyte FdCyd, FdCyd 10 mg/kg PO 1 h after THU 150 mg/kg PO, relative to 4, 8, and 16 mg/kg FdCyd IV with 30 mg/kg THU) is 8.9%; in series [3] (both, cynomolgus monkey, plasma, po, 10 mg/kg, F (PO bioavailability), analyte FdCyd, FdCyd 10 mg/kg PO 1 h after THU 500 mg/kg PO, relative to 4, 8, and 16 mg/kg FdCyd IV with 30 mg/kg THU), 25%; in series [3] (both, cynomolgus, cynomolgus monkey, plasma, po, FdCyd PO bioavailability after THU, monkeys, range, increased with increasing THU dose) it was 9 to 25%. Further, the clearance in series [3] (both, cynomolgus, cynomolgus monkey, plasma, iv) was roughly 15 mL/min/kg. Further, the “Plasma concentrations of FdCyd or downstream metabolites” value in series [3] (monkeys, 10 mg/kg PO FdCyd without THU, 10 mg/kg) is recorded as “not detectable; also recorded: undetectable”. In series [3] (monkeys, FdCyd 0.1 mg/kg PO 1 h after 500 mg/kg THU PO, two of four animals), the “Detectable plasma concentrations of FdCyd (range per animal)” value is 22.6 to 117.2 ng/mL and 34.1 to 152.2 ng/mL.
As to `O=c1[nH]c(=O)n([C@H]2C[C@H](O)[C@@H](CO)O2)cc1F` [FdUrd, 5-fluoro-2’-deoxyuridine], the “Detection of metabolites in plasma” value in series [3] (setting [4]) is given as “three had detectable plasma concentrations of FdUrd out to 60 min”. Also, in series [3] (monkeys), the “Concentrations, fold lower than those of parent FdCyd” value is given as “approximately 10 fold” and the Detection in plasma entry is reported as “detectable plasma concentrations”.
Regarding `Nc1ncn([C@H]2C[C@H](O)[C@@H](CO)O2)c(=O)n1` [decitabine], the Chemical stability result in series [1] is “unstable”.

These data come from publication PMC4573928 (Cancer chemotherapy and pharmacology, 2015).
